Assay results taken from the NIST ThermoML archive (doi:10.1016/j.fluid.2016.08.014).
Numbers after ± are expanded uncertainties.

Experiments:
[1] = Liquid, Vibrating tube method
[2] = refractive index (Na D-line) (dimensionless); details: 298.15 K; 101.33 kPa; Liquid; Standard Abbe refractometry

CC(=O)N(C)C [N,N-dimethylethanamide]
[1]
Details | mass density [kg/m3]
293.15 K, 300 kPa | 941 ± 1
293.15 K, 2600 kPa | 943 ± 1
293.15 K, 5100 kPa | 944 ± 1
293.15 K, 10100 kPa | 947 ± 1
293.15 K, 14900 kPa | 950 ± 1
293.15 K, 20200 kPa | 953 ± 1
293.15 K, 25200 kPa | 955 ± 1
293.15 K, 30400 kPa | 958 ± 1
298.15 K, 101.33 kPa | 936.729 ± 4
303.2 K, 300 kPa | 932 ± 1
303.2 K, 2500 kPa | 933 ± 1
303.2 K, 5100 kPa | 935 ± 1
303.2 K, 10200 kPa | 938 ± 1
303.2 K, 15200 kPa | 941 ± 1
303.2 K, 20200 kPa | 944 ± 1
303.2 K, 24900 kPa | 947 ± 1
303.2 K, 30200 kPa | 950 ± 1
313.15 K, 100 kPa | 922 ± 1
313.15 K, 2500 kPa | 924 ± 1
313.15 K, 5200 kPa | 926 ± 1
313.15 K, 10000 kPa | 929 ± 1
313.15 K, 15200 kPa | 932 ± 1
313.15 K, 20100 kPa | 935 ± 1
313.15 K, 25200 kPa | 938 ± 1
313.15 K, 30200 kPa | 941 ± 1
323.15 K, 100 kPa | 912 ± 1
323.15 K, 2500 kPa | 915 ± 1
323.15 K, 5000 kPa | 917 ± 1
323.15 K, 10100 kPa | 920 ± 1
323.15 K, 15100 kPa | 923 ± 1
323.15 K, 20100 kPa | 927 ± 1
323.15 K, 25100 kPa | 930 ± 1
323.15 K, 30500 kPa | 933 ± 1
333.15 K, 100 kPa | 903 ± 1
333.15 K, 2500 kPa | 906 ± 1
333.15 K, 5100 kPa | 907 ± 1
333.15 K, 10100 kPa | 911 ± 1
333.15 K, 15100 kPa | 915 ± 1
333.15 K, 20200 kPa | 918 ± 1
333.15 K, 25000 kPa | 921 ± 1
333.15 K, 30100 kPa | 924 ± 1
343.15 K, 100 kPa | 894 ± 1
343.15 K, 2600 kPa | 896 ± 1
343.15 K, 5100 kPa | 898 ± 1
343.15 K, 10000 kPa | 902 ± 1
343.15 K, 15000 kPa | 906 ± 1
343.15 K, 20200 kPa | 909 ± 1
343.15 K, 25100 kPa | 913 ± 1
343.15 K, 30300 kPa | 916 ± 1
353.15 K, 100 kPa | 885 ± 1
353.15 K, 2500 kPa | 887 ± 1
353.15 K, 5200 kPa | 889 ± 1
353.15 K, 10000 kPa | 893 ± 1
353.15 K, 14900 kPa | 897 ± 1
353.15 K, 20200 kPa | 901 ± 1
353.15 K, 25200 kPa | 905 ± 1
353.15 K, 30100 kPa | 908 ± 1
363.15 K, 200 kPa | 876 ± 1
363.15 K, 2500 kPa | 878 ± 1
363.15 K, 5000 kPa | 880 ± 1
363.15 K, 10100 kPa | 884 ± 1
363.15 K, 15200 kPa | 888 ± 1
363.15 K, 20300 kPa | 892 ± 1
363.15 K, 25200 kPa | 896 ± 1
363.15 K, 30000 kPa | 899 ± 1
373.15 K, 100 kPa | 866 ± 1
373.15 K, 2600 kPa | 868 ± 1
373.15 K, 5100 kPa | 871 ± 1
373.15 K, 10000 kPa | 875 ± 1
373.15 K, 15100 kPa | 880 ± 1
373.15 K, 20300 kPa | 884 ± 1
373.15 K, 25100 kPa | 888 ± 1
373.15 K, 30600 kPa | 892 ± 1
383.15 K, 100 kPa | 856 ± 1
383.15 K, 2500 kPa | 859 ± 1
383.15 K, 5000 kPa | 861 ± 1
383.15 K, 10000 kPa | 866 ± 1
383.15 K, 15000 kPa | 870 ± 1
383.15 K, 20300 kPa | 875 ± 1
383.15 K, 25300 kPa | 879 ± 1
383.15 K, 30200 kPa | 883 ± 1
393.15 K, 15000 kPa | 870 ± 1
403.15 K, 100 kPa | 837 ± 1
403.15 K, 2500 kPa | 840 ± 1
403.15 K, 5100 kPa | 843 ± 1
403.15 K, 10200 kPa | 848 ± 1
403.15 K, 15000 kPa | 853 ± 1
403.15 K, 20700 kPa | 858 ± 1
403.15 K, 25200 kPa | 862 ± 1
403.15 K, 30900 kPa | 867 ± 1
413.15 K, 100 kPa | 826 ± 1
413.15 K, 2600 kPa | 830 ± 1
413.15 K, 5000 kPa | 833 ± 1
413.15 K, 10100 kPa | 838 ± 1
413.15 K, 15100 kPa | 844 ± 1
413.15 K, 20100 kPa | 849 ± 1
413.15 K, 25200 kPa | 854 ± 1
413.15 K, 30200 kPa | 858 ± 1

Details | refractive index
[2] | 1.43615 ± 0.00037

CNC=O [N-methylformamide]
[1]
Details | mass density [kg/m3]
293.15 K, 200 kPa | 1004 ± 1
293.15 K, 500 kPa | 1004 ± 1
293.15 K, 1000 kPa | 1004 ± 1
293.15 K, 2500 kPa | 1005 ± 1
293.15 K, 5000 kPa | 1006 ± 1
293.15 K, 7600 kPa | 1008 ± 1
293.15 K, 10100 kPa | 1009 ± 1
293.15 K, 15000 kPa | 1012 ± 1
293.15 K, 20100 kPa | 1015 ± 1
293.15 K, 25100 kPa | 1017 ± 1
293.15 K, 30100 kPa | 1020 ± 1
293.15 K, 35000 kPa | 1023 ± 1
298.15 K, 101.33 kPa | 999.361 ± 4
303.15 K, 200 kPa | 995 ± 1
303.15 K, 500 kPa | 995 ± 1
303.15 K, 1100 kPa | 995 ± 1
303.15 K, 2500 kPa | 996 ± 1
303.15 K, 5100 kPa | 998 ± 1
303.15 K, 7600 kPa | 999 ± 1
303.15 K, 10000 kPa | 1000 ± 1
303.15 K, 15100 kPa | 1004 ± 1
303.15 K, 20100 kPa | 1006 ± 1
303.15 K, 25100 kPa | 1009 ± 1
303.15 K, 30000 kPa | 1012 ± 1
303.15 K, 35000 kPa | 1014 ± 1
313.15 K, 200 kPa | 986 ± 1
313.15 K, 500 kPa | 986 ± 1
313.15 K, 1100 kPa | 987 ± 1
313.15 K, 2600 kPa | 987 ± 1
313.15 K, 5100 kPa | 989 ± 1
313.15 K, 7500 kPa | 990 ± 1
313.15 K, 10100 kPa | 992 ± 1
313.15 K, 15000 kPa | 995 ± 1
313.15 K, 20000 kPa | 998 ± 1
313.15 K, 25100 kPa | 1001 ± 1
313.15 K, 30000 kPa | 1004 ± 1
313.15 K, 35000 kPa | 1006 ± 1
323.15 K, 100 kPa | 977 ± 1
323.15 K, 500 kPa | 977 ± 1
323.15 K, 1000 kPa | 978 ± 1
323.15 K, 2500 kPa | 979 ± 1
323.15 K, 5000 kPa | 980 ± 1
323.15 K, 7500 kPa | 982 ± 1
323.15 K, 10000 kPa | 984 ± 1
323.15 K, 15100 kPa | 987 ± 1
323.15 K, 20100 kPa | 990 ± 1
323.15 K, 25000 kPa | 993 ± 1
323.15 K, 30100 kPa | 996 ± 1
323.15 K, 35100 kPa | 999 ± 1
333.15 K, 100 kPa | 969 ± 1
333.15 K, 500 kPa | 969 ± 1
333.15 K, 1000 kPa | 969 ± 1
333.15 K, 2500 kPa | 970 ± 1
333.15 K, 5000 kPa | 972 ± 1
333.15 K, 7500 kPa | 974 ± 1
333.15 K, 10000 kPa | 975 ± 1
333.15 K, 15000 kPa | 979 ± 1
333.15 K, 20100 kPa | 982 ± 1
333.15 K, 25000 kPa | 985 ± 1
333.15 K, 30000 kPa | 988 ± 1
333.15 K, 35000 kPa | 990 ± 1
343.15 K, 100 kPa | 960 ± 1
343.15 K, 500 kPa | 960 ± 1
343.15 K, 1000 kPa | 960 ± 1
343.15 K, 2500 kPa | 962 ± 1
343.15 K, 5100 kPa | 963 ± 1
343.15 K, 7500 kPa | 965 ± 1
343.15 K, 10100 kPa | 967 ± 1
343.15 K, 15100 kPa | 970 ± 1
343.15 K, 20000 kPa | 973 ± 1
343.15 K, 25100 kPa | 977 ± 1
343.15 K, 30100 kPa | 980 ± 1
343.15 K, 35100 kPa | 983 ± 1
353.15 K, 100 kPa | 950 ± 1
353.15 K, 500 kPa | 950 ± 1
353.15 K, 1000 kPa | 952 ± 1
353.15 K, 2500 kPa | 953 ± 1
353.15 K, 5100 kPa | 955 ± 1
353.15 K, 7600 kPa | 957 ± 1
353.15 K, 10000 kPa | 958 ± 1
353.15 K, 15100 kPa | 962 ± 1
353.15 K, 20100 kPa | 965 ± 1
353.15 K, 25000 kPa | 969 ± 1
353.15 K, 30100 kPa | 972 ± 1
353.15 K, 35100 kPa | 975 ± 1
363.15 K, 100 kPa | 942 ± 1
363.15 K, 500 kPa | 943 ± 1
363.15 K, 1000 kPa | 943 ± 1
363.15 K, 2500 kPa | 944 ± 1
363.15 K, 5100 kPa | 946 ± 1
363.15 K, 7600 kPa | 948 ± 1
363.15 K, 10100 kPa | 950 ± 1
363.15 K, 15100 kPa | 954 ± 1
363.15 K, 20100 kPa | 957 ± 1
363.15 K, 25000 kPa | 960 ± 1
363.15 K, 30100 kPa | 964 ± 1
363.15 K, 35000 kPa | 967 ± 1
373.15 K, 100 kPa | 934 ± 1
373.15 K, 500 kPa | 934 ± 1
373.15 K, 1000 kPa | 934 ± 1
373.15 K, 2500 kPa | 936 ± 1
373.15 K, 5100 kPa | 938 ± 1
373.15 K, 7600 kPa | 940 ± 1
373.15 K, 10000 kPa | 941 ± 1
373.15 K, 15100 kPa | 945 ± 1
373.15 K, 20100 kPa | 949 ± 1
373.15 K, 25000 kPa | 952 ± 1
373.15 K, 30100 kPa | 956 ± 1
373.15 K, 35000 kPa | 959 ± 1
398.15 K, 100 kPa | 911 ± 1
398.15 K, 500 kPa | 912 ± 1
398.15 K, 1100 kPa | 912 ± 1
398.15 K, 2500 kPa | 913 ± 1
398.15 K, 5000 kPa | 916 ± 1
398.15 K, 7600 kPa | 918 ± 1
398.15 K, 10000 kPa | 920 ± 1
398.15 K, 15000 kPa | 924 ± 1
398.15 K, 20100 kPa | 928 ± 1
398.15 K, 25000 kPa | 932 ± 1
398.15 K, 30000 kPa | 936 ± 1
398.15 K, 35100 kPa | 940 ± 1
423.15 K, 100 kPa | 888 ± 1
423.15 K, 500 kPa | 889 ± 1
423.15 K, 1000 kPa | 889 ± 1
423.15 K, 2600 kPa | 890 ± 1
423.15 K, 5100 kPa | 893 ± 1
423.15 K, 7500 kPa | 896 ± 1
423.15 K, 10000 kPa | 898 ± 1
423.15 K, 15200 kPa | 903 ± 1
423.15 K, 20100 kPa | 907 ± 1
423.15 K, 25100 kPa | 911 ± 1
423.15 K, 30100 kPa | 916 ± 1
423.15 K, 35100 kPa | 920 ± 1

Details | refractive index
[2] | 1.43063 ± 0.00037
